Results taken from patent US20090176870A1, “TGF-BETA MODULATORS AND METHODS FOR USING THE SAME” (MARSHFIELD CLINIC, priority 2005, published 2009).

Assays:
[1] = tested on: TGF-β1 growth inhibition of Mv1Lu cells; assay: Mv1Lu growth inhibition assay with TGF-β1; format: cell-based, mink; conditions: TGF-β1 1.5 ng/mL serially diluted to 0.095 ng/mL with compound, FIGS. 4A-4D
Method: Mv1Lu cells were purchased from ATCC. Growth inhibition assays for Mv1Lu and CHO cells were performed as described by Danielpour et al., in J. Cell. Physiol., 1989, 138, 79-86, using 0.2% fetal bovine serum to limit binding proteins present in serum. Mv1Lu cells were cultured in the presence of a standard TGF-β dilution curve starting at 1.5 ng/mL and serially diluted to 0.047 ng/mL or in the presence of TGF-β1 (1.5 ng/mL serially diluted to 0.095 ng/mL) with the compound. For each tested compound, one assay contained only the compound and no added TGF-β1.

[2] = tested on: TGF-β1 stimulated growth of CHO cells; assay: CHO cell growth stimulation by TGF-β1; format: cell-based, Chinese hamster; conditions: 1 L (FIG. 5A) and 2 μL (FIG. 5B) of blocking compound
Method: (§1) Mv1Lu cells were purchased from ATCC. Growth inhibition assays for Mv1Lu and CHO cells were performed as described by Danielpour et al., in J. Cell. Physiol., 1989, 138, 79-86, using 0.2% fetal bovine serum to limit binding proteins present in serum.

[3] = Precipitate formation / solubility; format: physicochemical; conditions: for Solubility: Table 3; for precipitate formation when diluted into water: room temperature, centrifugation at 17,000×G
^125I labeled TGF-β1 = ^125I labeled TGF-β1 (Homo sapiens, UniProt P01137); assay: 125I labeled TGF-β1 remaining in solution after incubation with compound and centrifugation; conditions: for Amount of ^125I labeled TGF-β1 in solution: 0.5 μL compound in 100 μL DMEM, 0.2% FBS overnight, 90 μL supernatant counted
Sequence of ^125I labeled TGF-β1 (P01137 279-390 limits assumed): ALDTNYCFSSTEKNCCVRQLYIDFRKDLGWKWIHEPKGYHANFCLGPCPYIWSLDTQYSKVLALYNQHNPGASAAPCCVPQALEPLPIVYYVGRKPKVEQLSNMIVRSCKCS
Method: About 10 μL of ^125I labeled TGF-β1 (22.78 μCi/ml, 6.3 pmole/ml) was incubated with 0.5 μL of the compound in 100 μL of DMEM, 0.2% FBS overnight and then centrifuged. […] However, for compound NSC 119889 there was approximately a 40% increase in the amount of ^125I that remained in solution relative to the control. While this might be due to the compound decreasing adherence of TGF-β to the microcentrifuge tube, the lack of precipitation of the ^125I labeled TGF-β is consistent with the compounds blocking interaction of TGF-β1 with the receptor possibly by direct interaction with the receptor.

CHO cells = assay: CHO cell growth, tritiated thymidine incorporation; format: cell-based, Chinese hamster; conditions: for amount of radioactivity incorporated into CHO cells: tritiated thymidine
Method: as §1
Chinese hamster ovarian (i.e., CHO) cells were cultured in the presence of compounds and tested for growth in the presence of tritiated thymidine. […] The reported value is the average of duplicate assays.

TβRIII = molecular target: T1, TβRIII (Homo sapiens, UniProt Q03167); assay: Soluble TβRIII receptor assay with 125I labeled TGF-β1; format: binding; conditions: for Amount of ^125I labeled TGF-β1 bound to TβRIII: soluble receptor assay, control 25048
T1 construct: purchased R&D Systems
T1 sequence (Q03167 21-787 limits assumed): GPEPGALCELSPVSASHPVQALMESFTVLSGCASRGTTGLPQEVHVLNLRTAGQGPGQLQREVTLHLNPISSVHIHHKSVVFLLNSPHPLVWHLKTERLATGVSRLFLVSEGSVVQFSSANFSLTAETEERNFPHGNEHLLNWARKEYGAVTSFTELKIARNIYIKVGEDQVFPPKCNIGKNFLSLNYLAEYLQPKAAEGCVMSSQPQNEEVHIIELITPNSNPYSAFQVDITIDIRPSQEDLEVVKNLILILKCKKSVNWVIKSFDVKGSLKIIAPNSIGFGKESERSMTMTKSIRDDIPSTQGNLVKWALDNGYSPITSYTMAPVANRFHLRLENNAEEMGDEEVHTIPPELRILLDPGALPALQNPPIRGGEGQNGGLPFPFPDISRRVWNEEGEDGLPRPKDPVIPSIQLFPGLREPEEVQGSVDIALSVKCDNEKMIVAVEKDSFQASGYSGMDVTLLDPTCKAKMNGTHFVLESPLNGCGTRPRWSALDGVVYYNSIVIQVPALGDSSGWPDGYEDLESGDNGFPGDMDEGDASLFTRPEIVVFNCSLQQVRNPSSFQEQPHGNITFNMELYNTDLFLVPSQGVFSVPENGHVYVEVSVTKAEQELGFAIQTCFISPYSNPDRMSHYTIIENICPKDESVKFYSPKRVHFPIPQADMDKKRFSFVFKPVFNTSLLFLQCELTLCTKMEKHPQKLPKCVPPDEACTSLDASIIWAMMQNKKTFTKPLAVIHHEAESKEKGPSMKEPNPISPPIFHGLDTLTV
Method: The compound NSC 119889 and related molecules also block soluble TGF-β receptor type III (TβRIII). TβRIII binds TGF-β1 and TGF-β2 and is involved in presenting TGF-β2 to TβRII. […] TβRIII was purchased from R&D Systems (Minneapolis, Minn.). It was used at concentration of 500 ng/mL in the soluble receptor assay when Immulon 2HB plates were used and at 1 μg/mL when Immulon 1B plates were used.

[4] = tested on: TGF-β1 activity in CHO cells carrying the plasmid pTARE-Luc; assay: pTARE luciferase reporter assay in CHO cells; format: cell-based, Chinese hamster; conditions: compound 1 μL/mL with added TGF-β1 25 ng/mL, FIG. 2B
Method: The pTARE luciferase reporter system was purchased from Stratagene (La Jolla, Calif.) and transfected into CHO (Chinese Hamster Ovary) cells that were purchased from ATCC (American Type Culture Collection). The plasmid pSV2neo was co-transfected with pTARE at a 40 fold lower concentration to allow for selection of colonies that received plasmid DNA using G418. Luciferase assays were performed as described using Luciferase assay system and reporter lysis buffer (Promega, Madison, Wis.). Luciferase was quantitated using a luminometer (Turner Designs, Inc., Sunnyvale, Calif.).
Compounds of Table 1 (see Example 1 above) were further tested for their ability to modulate TGF-β1 activity. Briefly, the CHO cells carrying the plasmid pTARE-Luc were treated either with each compound individually (1 μL/mL) or with added TGF-β1 (25 ng/mL). Without being bound by any theory, it is believed that testing the compound by itself in this assay allows the identification of candidate TβRII agonists while testing the chemical in the presence of TGF-β1 allows the identification of candidate TGF-β1 antagonists.

TβRII = molecular target: T2, TβRII (Homo sapiens, UniProt P37173); assay: Soluble TβRII binding assay with 125I labeled TGF-β1; conditions: I-125 TGF-β1, increasing concentration of competitor, FIG. 6
T2 construct: purchased R&D Systems
T2 sequence (P37173 23-166 limits assumed, species assumed): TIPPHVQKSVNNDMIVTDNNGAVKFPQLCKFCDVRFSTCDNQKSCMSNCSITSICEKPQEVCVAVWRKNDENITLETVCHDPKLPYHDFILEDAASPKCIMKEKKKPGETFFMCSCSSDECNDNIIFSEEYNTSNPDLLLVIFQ
Method: Immulon 1B or 2 HB 96 well plates (Dynex Technologies, Inc., Chantilly, Va.) were coated with 100 μL/well of 500 ng/mL TβRII (R&D Systems, Minneapolis, Minn.) in phosphate buffered saline overnight at 4° C. and then blocked for 1 hr with 150 μL/well of 1% bovine serum albumin, 150 mM NaCl, 100 mM tris-HCl, pH 7.6. Following washing with PBS/0.05% Tween 20 (wash buffer, i.e., “WB”) samples were serially diluted in 1 mg/mL BSA, 0.15 M NaCl, 100 mM tris-HCl, pH 7.6, 0.05% Tween 20 containing 5 ng/mL of ^125I labeled TGF-β1 as described by Frolik et al., in J. Biol. Chem., 1984, 259, 10995-11000. Samples were incubated in the wells with TβRII for one hour at room temperature and then the plates were washed with WB. Individual wells were separated and counted.
To identify novel organic chemicals that block TGF-B activity, about 30,000 chemicals from the National Cancer Institute Developmental Therapeutics program open repository were screened. This repository contains about 140,000 chemicals. For screening, soluble TBRII was attached to an immulon 2 HB plate and then blocked with BSA. About 1 μL of each test chemical was diluted from the stock plate into 125 μL of dilution buffer containing 5 ng/mL I-125 labeled TGF-β1. In some cases, 1 μL of four chemicals each was combined to allow higher throughput. […]

| Solubility [3] | precipitate formation when diluted into water [3] | Amount of ^125I labeled TGF-β1 in solution (^125I labeled TGF-β1; first value column) | increase in the amount of ^125I that remained in solution relative to the control (^125I labeled TGF-β1; relative to control) [%] | Amount of ^125I labeled TGF-β1 in solution (^125I labeled TGF-β1; second value column) | Amount of ^125I labeled TGF-β1 in solution (^125I labeled TGF-β1; third value column) | Amount of ^125I labeled TGF-β1 bound to TβRIII (TβRIII) | binding competition vs TGF-β1 for soluble TβRII, effective concentration range (TβRII) | Compound | blocking of growth inhibition of TGF-β1 [1] | blocking of TGF-β1 stimulation of CHO cell growth [2] | amount of radioactivity incorporated into CHO cells (CHO cells; Experiment 1, average of duplicate assays) | amount of radioactivity incorporated into CHO cells (CHO cells; Experiment 2, average of duplicate assays) | growth of CHO cells (in words) (CHO cells; two experiments) | blocking of binding of ^125I labeled TGF-β1 to TβRIII (in words) (TβRIII) | luciferase activity in the presence of TGF-β1 [4] |
| --- | --- | --- | --- | --- | --- | --- | --- | --- | --- | --- | --- | --- | --- | --- | --- |
| no ppt |  | 34567 |  |  |  |  |  | Oc1cc(O)c2c(c1)OC(c1ccc(O)c(O)c1)C(OC1(c3cc(O)c(O)c(O)c3)Oc3cc(O)cc(O)c3C(O)C1O)C2 (stereo not shown) [NSC 143101] |  |  |  |  |  |  |  |
| no ppt |  | 32155 |  |  |  |  |  | O=C(O)c1c[nH]c2cc(OCc3ccccc3)ccc2c1=O [NSC 306960] | did not block the growth inhibition activity of TGF-β1 |  |  |  |  |  | did not inhibit TGF-β1 induction of luciferase activity |
|  |  |  |  |  |  |  | nanomolar range | TGF-β1: non-labeled TGF-β1 protein used as competitor for TβRII in the binding competition curve |  |  |  |  |  |  |  |

Second part, the compound before the results:

| Compound | Solubility [3] | precipitate formation when diluted into water [3] | Amount of ^125I labeled TGF-β1 in solution (^125I labeled TGF-β1; first value column) | increase in the amount of ^125I that remained in solution relative to the control (^125I labeled TGF-β1; relative to control) [%] | Amount of ^125I labeled TGF-β1 in solution (^125I labeled TGF-β1; second value column) | Amount of ^125I labeled TGF-β1 in solution (^125I labeled TGF-β1; third value column) | Amount of ^125I labeled TGF-β1 bound to TβRIII (TβRIII) | binding competition vs TGF-β1 for soluble TβRII, effective concentration range (TβRII) | blocking of growth inhibition of TGF-β1 [1] | blocking of TGF-β1 stimulation of CHO cell growth [2] | amount of radioactivity incorporated into CHO cells (CHO cells; Experiment 1, average of duplicate assays) | amount of radioactivity incorporated into CHO cells (CHO cells; Experiment 2, average of duplicate assays) | growth of CHO cells (in words) (CHO cells; two experiments) | blocking of binding of ^125I labeled TGF-β1 to TβRIII (in words) (TβRIII) | luciferase activity in the presence of TGF-β1 [4] |
| --- | --- | --- | --- | --- | --- | --- | --- | --- | --- | --- | --- | --- | --- | --- | --- |
| O=C(O)c1c(Br)c(Br)c(Br)c(Br)c1C1c2ccc(O)cc2Oc2cc(O)ccc21 [NSC 119889] | no ppt | form less or no precipitate | 38324 | ~40 | 27159 | 29239 | 746 |  | blocks growth inhibition of TGF-β1 | This stimulation was blocked | 1475 | 936 | did not substantially inhibit growth of CHO cells | blocks binding of the ^125I labeled TGF-β1 to TβRIII | marked reduction in luciferase activity |
| O=C(O)C1CCCCC1c1c2ccc(=O)c(O)c-2oc2c(O)c(O)ccc12 (stereo not shown) [NSC 119910] | ppt | form precipitates |  |  | 24924 | 20587 |  |  |  |  |  |  |  |  |  |
| O=C(O)/C=C/c1c2ccc(=O)c(O)c-2oc2c(O)c(O)ccc12 [NSC 119911] | ppt | form precipitates | 33990 |  | 25748 | 24534 | 769 |  | blocks growth inhibition by TGF-β1 |  |  |  |  |  |  |
| CC1C2C=CC1C(c1c3ccc(=O)c(O)c-3oc3c(O)c(O)ccc13)C2C(=O)O (stereo not shown) [NSC 119913] | no ppt | form less or no precipitate |  |  | 27614 | 27960 |  |  |  |  |  |  |  |  |  |
| O=C(O)CCc1c2ccc(=O)c(O)c-2oc2c(O)c(O)ccc12 [NSC 119915] | ppt | form precipitates | 33660 |  | 25308 | 20770 | 726 |  | blocks growth inhibition of TGF-β1 |  |  |  |  |  |  |
